Source: patent US20030171397A1 (priority 2003, published 2003)
“Also recorded” adds a separate entry of the source. Read-outs that look alike come from different tables or passages of the source. Numbered stars: 1 amine (or outer) side, 2 acyl side, 3 side chain; on linkers, the order of the positions; unused ones are H or OH. Bridge positions count the residues as written; N and C are the ends. Square brackets hold non-standard residues; d marks the D form. Peptide text beside a SMILES is read from it. I, II: the chains in the order shown. Actinocin(9to1) = Cc1c2oc3c(C)ccc(C(=O)[*:1])c3nc-2c(C(=O)[*:2])c(N)c1=O; NMeV = CN[C@H](C(=O)O)C(C)C; Sar = CNCC(=O)O

Key:
[1] = system: tumor cell lines or primary cultures of rat neuronal cells; settings: continued exposure; cited from earlier work
MCF-7 cells [2] = system: MCF-7 cells
Protocol: (§1) Human breast tumor cell lines (MCF-7, T47D, SKBr3, and MCF-7/Adr^−) were cultured in DMEM containing 3.7 g/liter Na2HCO3, fetal bovine serum (10%), and insulin (10 mg/liter). For cytotoxicity assays, cells were transferred to DMEM+Ham's nutrient mixture F-12 (without phenol red), with 1.2 g/liter Na2HCO3. Cells were seeded at 100,000 cells/well. Human SK-N-SH neuroblastoma and DU-145 prostate carcinoma cells were cultured in DMEM, supplemented with fetal bovine serum (10%).
(§2) Cell death was assessed by release of lactate dehydrogenase (LDH) into the culture medium using the CytoTox 96 kit from Promega (Madison, Wis.). The method used was as specified by manufacturer with minor modifications. Cells were plated and cultured in 24-well plates for 1 to 2 days prior to the experiment. Cells were treated in the plates under the specified drug conditions. Following treatment, the medium was transferred to centrifuge tubes and centrifuged to remove cell debris. Supernatant (50 μl) was transferred to a 96-well plate, to which was added substrate mix in assay buffer, followed by stop solution after a 30 min incubation. Formation of formazan was monitored at 490 nm in a plate reader. Values are expressed relative to total lysis controls (Triton X-100 was used to determine value for 100% cell kill) and no drug-controls. Doxorubicin and caspase inhibitors (Z-VAD-FMK, Y-VAD-CHO, DEVD-CHO) were obtained from Calbiochem (San Diego, Calif.) and actinomycin-D from Sigma (St. Louis, Mo.).

MCF-7/Adr^− cells = assay: Cytotoxicity assay, LDH release into culture medium
Protocol: as §1, §2

[3] = up to 100 mg orally every four hours, 30 mg IV and 60 mg IM; cited from earlier work
sigma-2 receptor = settings: cited from earlier work; for sigma receptor subtype selectivity: sigma-2 vs sigma-1
[4] = system: SK-N-SH neuroblastoma cells; settings: cited from earlier work
SKBr3 cells = assay: Cytotoxicity assay, LDH release into culture medium; assay type: cell-based, human; settings: various concentrations, FIG. 3A
Protocol: (§3) Cells were seeded at 100,000 cells/well.

T47D cells [5] = assay: as above; assay type: cell-based, human; settings: various concentrations, FIG. 3B
Protocol: as §3

breast tumor cell lines = assay: Cytotoxicity (LDH release) across breast tumor cell lines; assay type: cell-based, human; settings: for effect of p53 status on cytotoxic potency: mutant p53 (MCF-7/Adr^−, SKBr3, T47D) vs wild-type p53 MCF-7, FIG. 4B; for relative cytotoxic potency: FIG. 3A, 3B, 4B
Protocol: as §3

MCF-7 cells [6] = assay: Detection of apoptosis by the TUNEL method; assay type: cell-based, human; settings: 100 μM, 48 hours; for TUNEL assay result: FIG. 2
Protocol: as §3
(§4) DNA fragmentation occurring during apoptosis can be detected by incorporating fluorescein-12-dUTP at the 3′-OH DNA ends using the enzyme, terminal deoxynucleotidyl transferase (TdT). TUNEL (TdT-mediated dUTP Nick-End Labeling) was performed using the Apoptosis Detection System, Fluorescein Kit (Promega, Madison, Wis.) according to the manufacturer's specification. After treatment with sigma ligands at the concentrations and times specified, cells were fixed with 4% formaldehyde, permeabilized with Triton X-100, and incubated with fluorescein-12-dUTP and terminal deoxynucleotidyl transferase and then with propidium iodide. Propidium iodide stains the DNA in both apoptotic and non-apoptotic cells with orange-red color. Fluorescein produces yellow-green fluorescence, indicating fragmented DNA within the nucleus of apoptotic cells. Filters used: excitation 450-490 nm, barrier 520 nm.

T47D cells [7] = assay type: cell-based, human
Protocol: as §3, §4

MCF-7 cells [8] = assay: Detection of apoptosis by Annexin V binding; assay type: cell-based, human; settings: drug 100 μM; Z-VAD-FMK or Y-VAD-CHO 50 μM; 48 hours; FIG. 5
Protocol: as §3
The early stages of apoptosis are characterized by translocation of phosphatidyl serine (PS) from the inner surface of the plasma membrane to the outer surface of the membrane. Externalized PS can then be detected using Annexin V, a protein with high affinity for PS. This was carried out using the ApoAlert Annexin V Apoptosis Kit (Clontech, Palo Alto, Calif.) according to the manufacturer's specifications. After incubation with sigma ligands at the concentrations and times specified, live cells (without fixing) were incubated with annexin V-FITC and propidium iodide, and were investigated using fluorescence microscopy. […] Filters used: excitation 450 nm, barrier 535 nm.

[9] = system: breast tumor cell lines possessing p53 mutations; settings: Crawford et al., 1999; cited from earlier work
SKBr3 cell lines = assay type: cell-based, human
Protocol: as §3, §4

12-methoxyibogamine [ibogaine]
cell morphological changes and cell death [1]: activity

CC(C)=CCN1CCC2(C)c3cc(O)ccc3CC1C2C (racemic) [pentazocine]
potentiation of doxorubicin-induced cytotoxicity (MCF-7 cells [2]; combined with doxorubicin in MCF-7 cells): Little or no potentiation
potentiation of doxorubicin-induced cytotoxicity (MCF-7/Adr^− cells; haloperidol 25 μM or pentazocine 35 μM with various concentrations of doxorubicin, FIG. 8): potentiated the cytotoxicity of doxorubicin; also recorded: potentiated the higher doses of doxorubicin
peak plasma concentrations [3]: about 160 ng/ml

CC(C)=CCN1CCC2(C)c3cc(O)ccc3CC1C2C (single isomer, unassigned; (+)) [(+)-pentazocine]
sigma-2 affinity (sigma-2 receptor): binds very weakly
cell morphological changes and cell death [1]: lack of activity

CC(C)=CCN1CCC2(C)c3cc(O)ccc3CC1C2C (single isomer, unassigned; (-)) [(−)-Pentazocine]
sigma-2 affinity (sigma-2 receptor): has sigma-2 affinity

CN(C)CCN(C)CCc1ccc(Cl)c(Cl)c1 [BD1047]
antagonist activity in the calcium assay ([4]; pH 7.2): ineffective
antagonist activity in the calcium assay ([4]; pH 8.2): effectively attenuated agonist activity

CN1CCN(CCc2ccc(Cl)c(Cl)c2)CC1 [BD1063]
antagonist activity in the calcium assay ([4]; pH 7.2): ineffective
antagonist activity in the calcium assay ([4]; pH 8.2): effectively attenuated agonist activity

CN1CC[C@]2(c3cccc(O)c3)CC(=O)/C(=C/c3ccccc3)[C@H]1C2 [CB-64D, (+)-1R,5R-E-8-benzylidene-5-(3-hydroxyphenyl)-2-methylmorphan-7-one]
cytotoxicity (LDH release, percentage of total cell kill) (SKBr3 cells): cytotoxic
cytotoxicity (LDH release, percentage of total cell kill) (T47D cells [5]): cytotoxic
potency relative to CB-184 (fold less potent) (breast tumor cell lines; intact cells): about 10 fold
effect of p53 status on cytotoxic potency (breast tumor cell lines): generally not affected by p53 status; also recorded: comparable
extent of apoptotic changes / apoptotic nuclei (TUNEL) (MCF-7 cells [6]): extensive apoptotic changes
TUNEL assay result (MCF-7 cells [6]): positive results
cells visualized displaying apoptotic nuclei (MCF-7 cells [6]; in some experiments): up to 100%
TUNEL assay result (T47D cells [7]; 100 μM, 48 hours, FIG. 2): positive results
effect of caspase inhibitors on drug-induced apoptosis (Annexin V binding) (MCF-7 cells [8]): unaffected by co-treatment with caspase inhibitors
sigma receptor subtype selectivity (sigma-2 receptor): sigma-2 subtype-selective
cell morphological changes and cell death [1]: activity
induction of apoptosis [9]: induce apoptosis

CN1CC[C@]2(c3cccc(O)c3)CC(=O)/C(=C/c3ccc(Cl)c(Cl)c3)[C@H]1C2 [CB-184, (+)-1R,5R-E-8-(3,4-dichlorobenzylidene)-5-(3-hydroxyphenyl)-2-methylmorphan-7-one]
cytotoxicity of combination with doxorubicin (MCF-7 cells [2]; CB184 1 μM + doxorubicin 10 μM, 24 and 48 hours, FIG. 7A, 7B): Clear synergistic effects
effect of DEVD-CHO on cytotoxicity (LDH release) (MCF-7 cells [2]; DEVD-CHO 50 μM, caspase 3 inhibitor, FIG. 6A, 6B): no difference
effect of caspase inhibitors on drug-induced cytotoxicity (LDH release) (MCF-7 cells [2]; DEVD-CHO or Z-VAD-FMK 50 μM, FIG. 6A-6C): not that induced by CB-184
cytotoxicity of combination with actinomycin D (MCF-7/Adr^− cells; CB184 1 μM + actinomycin D 1 μg/ml at 24 hours or 0.1 μg/ml at 48 hours, FIG. 7C, 7D): potentiated
cytotoxicity of combination with doxorubicin (MCF-7/Adr^− cells; CB184 1 μM + doxorubicin 10 μM): less pronounced
cytotoxicity (LDH release, percentage of total cell kill) (SKBr3 cells): cytotoxic
cytotoxicity (LDH release, percentage of total cell kill) (T47D cells [5]): cytotoxic
concentration below which toxicity is generally not seen in the LDH assay (breast tumor cell lines; 24 hrs): below 1 μM
relative cytotoxic potency (breast tumor cell lines; intact cells): more potent than CB-64D; also recorded: most potent sigma-2 selective agent in intact cells
relative cytotoxic potency (breast tumor cell lines; intact cells, listed as CB184): greatest potency in all cell lines tested
LDH release compared to controls (breast tumor cell lines; below 1 μM, 48 hrs): mildly increased LDH release
effect of p53 status on cytotoxic potency (breast tumor cell lines): generally not affected by p53 status; also recorded: comparable
sigma receptor subtype selectivity (sigma-2 receptor): sigma-2 subtype-selective

Cc1c2oc3c(C)ccc(C(=O)N[C@@H]4C(=O)N[C@H](C(C)C)C(=O)N5CCC[C@H]5C(=O)N(C)CC(=O)N(C)[C@@H](C(C)C)C(=O)O[C@@H]4C)c3nc-2c(C(=O)N[C@@H]2C(=O)N[C@H](C(C)C)C(=O)N3CCC[C@H]3C(=O)N(C)CC(=O)N(C)[C@@H](C(C)C)C(=O)O[C@@H]2C)c(N)c1=O [actinomycin D] (I: T[dV]P[Sar][NMeV] / II: T[dV]P[Sar][NMeV]; ester I:1-I:C, II:1-II:C; linker I:N-II:N via Actinocin(9to1))
induction of apoptosis (SKBr3 cell lines): apoptosis was induced
induction of apoptosis (T47D cells [7]): apoptosis was induced
induction of apoptosis [9]: greatly attenuated

O=P1(N(CCCl)CCCl)NCCCO1 (stereo not shown) [cyclophosphamide]
induction of apoptosis (SKBr3 cell lines): apoptosis was induced
induction of apoptosis (T47D cells [7]): apoptosis was induced

COc1cccc2c1C(=O)c1c(O)c3c(c(O)c1C2=O)C[C@@](O)(C(=O)CO)C[C@@H]3O[C@H]1C[C@H](N)[C@H](O)[C@H](C)O1 [doxorubicin]
LDH release (MCF-7 cells [2]; various concentrations, FIG. 6C): dose-dependent increase in LDH-release
TUNEL assay result (MCF-7 cells [6]): positive results
induction of apoptosis (SKBr3 cell lines): apoptosis was induced
induction of apoptosis (T47D cells [7]): apoptosis was induced
TUNEL assay result (T47D cells [7]; 100 μM, 48 hours, FIG. 2): positive results
effect of caspase inhibitors on drug-induced apoptosis (Annexin V binding) (MCF-7 cells [8]): blocked apoptosis induced by doxorubicin
induction of apoptosis [9]: greatly attenuated

O=C(CCCN1CCC(O)(c2ccc(Cl)cc2)CC1)c1ccc(F)cc1 [haloperidol]
extent of apoptotic changes / apoptotic nuclei (TUNEL) (MCF-7 cells [6]): less extensively than the more potent CB64D
TUNEL assay result (MCF-7 cells [6]): positive results
TUNEL assay result (T47D cells [7]; 100 μM, 48 hours, FIG. 2): positive results
sigma receptor subtype selectivity (sigma-2 receptor): subtype non-selective
cell morphological changes and cell death [1]: cell death

OC(CCCN1CCC(O)(c2ccc(Cl)cc2)CC1)c1ccc(F)cc1 (stereo not shown) [reduced haloperidol]
extent of apoptotic changes / apoptotic nuclei (TUNEL) (MCF-7 cells [6]): less extensively than the more potent CB64D
TUNEL assay result (MCF-7 cells [6]): positive results
TUNEL assay result (T47D cells [7]): positive results
sigma receptor subtype selectivity (sigma-2 receptor): subtype non-selective
cell morphological changes and cell death [1]: cell death
